Assay results: US7026339B2, “Inhibitors of HCV NS5B polymerase” (priority 2003, dated 2006)

Test system: HuH-7 replicon cells 5–15 and 9–13 (HCV replication)
Assay: Inhibition of viral replication in HuH-7 replicon cells (HCV RNA / GAPDH RNA by multiplex RT-PCR)
Type: cell-based
Conditions: Hepatitis C virus, 72 h; inhibiting 50% of replication; HuH-7 replicon cells, 3 days; read-out: IC50
Description: Compounds were evaluated for inhibition of viral replication according to published procedures (Bartenschlager, R., et. al., Science, 1999, 285, 110) with modifications as follows.
HuH-7 replicon cells 5–15 and 9–13 were cultured in Dulbecco's minimal essential medium (DMEM) containing high glucose and supplemented with 10% fetal bovine serum (FBS), L-glutamine (2 mM), non-essential amino acids (1×), Penicillin (100 IU/mL)/Streptomycin (100 μg/mL) and G418 (Geneticin, 750 μg/mL). Unless otherwise specified, all media components were obtained from Invitrogen. Replicon cell line stocks were maintained as sub-confluent monolayers by passaging every Monday (1:6 split) and Thursday (1:10 split) and incubated at 37° C. with 5% CO2. Tissue culture plates (96-well white clear bottom plates, Corning #3610) were seeded at 7×10^3 cells/well and incubated for 24 hours prior to addition of the compounds.
Compounds in dry powder form were diluted in DMSO (30 mM stock). Serial dilutions of each Compound in DMSO (10 mM–0.1 mM) were performed in a 96-well polypropylene plate using a microtiter format. Culture media (200 μl) was added to the corresponding wells of a sterile 96-well round bottom plate. Diluted compound (2 μl) was added to the corresponding wells of the medial plate (final compound concentrations: 100 μM–1 μM). Culture media was removed from the corresponding wells of the 96-well plate containing the replicon cells and 150 μl diluted compound added. Media containing 1% DMSO and a serially diluted IFN were included on each plate. The cultures were incubated at 37° C. with 5% CO2 for 3 days. Cultures were observed visually for cytotoxicity or compound precipitation prior to RNA extraction described below.
Total cellular RNA was extracted by spin column technology (RNeasy 96, Qiagen) using the vacuum methodology according to the manufacturer's protocol. In brief, culture media was removed and 100 μl RLT lysis buffer containing 0.14M β-mercaptoethanol (β-ME) was added to each well. The plate was kept flat on the laboratory bench and shaken vigorously to lyse the cells. An equal volume of 70% ETOH was mixed with the lysate and added to the corresponding columns of the RNeasy 96-well plate. Vacuum was applied to draw the lysate through the filters. After ventilating the plate, buffer RW1 (1 mL) was drawn through each column. The waste tray was emptied and the filters washed twice with buffer RPE (1 mL/wash). After ventilating the tray, the RNeasy plate was removed and the bottom of the plate struck several times on a stack of paper towels to remove excess wash buffer. The waste tray was removed from the vacuum apparatus and the RNeasy 96-well plate dried by applying vacuum for 10 minutes. Total cellular RNA was eluted from the columns with two washes of 60 μl RNase-free water.
Relative quantitative multiplex RT-PCR was performed using TaqMan (TM) EZ RT Core Reagent kit (Perkin Elmer) according to the manufacturer's protocol (PE Applied Biosystems User Bulletin #2). Primer 061 (NT 61–82) and 139 (NT 139–158) amplifying a short region in the 5′ untranslated region of the HCV genome were utilized at 300 nM final concentrations. Probe #3 (NT 97–119) labeled with FAM reporter dye was utilized at 200 nM final concentration. Pre-developed human GAPDH primers and probe labeled with VIC reporter dye were obtained from PE Applied Biosystems (# 4310884E) and used according to the manufacturer's protocol. TM RT-PCR master mix was prepared containing the above primers/probe for both target RNA. Total cellular RNA (2 μl) was added to the reaction tubes of a 96-well optical plate that corresponded to the wells of the replicon culture plate. The final volume of each reaction was 50 μl. A standard curve was prepared from ten-fold serial dilutions of total cellular RNA extracated from 10^6 replicon cells and eluted in 30 μl RNase-free water. […]

SMILES	IC50 [µM]
O=C(N/N=C/c1ccccc1OS(=O)(=O)c1ccc(C(F)(F)F)cc1)c1ccccc1Br [Compound 88, 2-{(E)-[2-(2-bromobenzoyl)hydrazono]methyl}phenyl4-(trifluoromethyl)benzenesulfonate]	< 5
O=C(Cc1ccc(Cl)cc1)N/N=C/c1ccccc1OS(=O)(=O)c1ccc(C(F)(F)F)cc1 [Compound 7, 2-((E)-{2-[2-(4-chlorophenyl)acetyl]hydrazono}methyl)-phenyl 4-(trifluoromethyl)benzenesulfonate]	< 5
O=C(Cc1cccc(-n2cccc2)c1)N/N=C/c1ccccc1OS(=O)(=O)c1ccc(C(F)(F)F)cc1 [Compound 97, 2-[(E)-(2-{2-[3-(1H-pyrrol-1-yl)phenyl]acetyl}hydrazono)methyl]phenyl4-(trifluoromethyl)benzenesulfonate]	> 50
C/C(=N\NC(=O)Cc1ccc(Cl)c(Cl)c1)c1ccccc1OS(=O)(=O)c1ccc(C(F)(F)F)cc1 [Compound 223, 2-{(1E)-N-[(3,4-dichlorophenyl)acetyl]ethanehydrazonoyl}-phenyl 4-(trifluoromethyl)benzenesulfonate]	> 50
CN(C)c1ccc(CC(=O)N/N=C/c2ccccc2OS(=O)(=O)c2ccc(C(F)(F)F)cc2)cc1 [Compound 11, 2-[(E)-(2-{2-[4-(dimethylamino)phenyl]acetyl}hydrazono)-methyl]phenyl 4-(trifluoromethyl)benzenesulfonate]	< 5
O=C(Cn1c(Br)nc(Cl)c1Cl)N/N=C/c1ccccc1OS(=O)(=O)c1ccc(C(F)(F)F)cc1 [Compound 107, 2-((E)-{2-[2-(2-bromo-4,5-dichloro-1H-imidazol-1-yl)acetyl]hydrazono}methyl)phenyl 4-(trifluoromethyl)benzenesulfonate]	> 50
Cc1cccc(/C=N/NC(=O)Cc2cccc(Cl)c2)c1OS(=O)(=O)c1ccc(C(F)(F)F)cc1 [Compound 173, 2-((E)-{[(3-chlorophenyl)acetyl]hydrazono}methyl)-6-methylphenyl 4-(trifluoromethyl)benzenesulfonate]	< 5
COc1cccc(CC(=O)N/N=C/c2cccc(F)c2OS(=O)(=O)c2ccc(C)cc2)c1 [Compound 159]	5 to 50
COc1cccc(CC(=O)N/N=C/c2ccccc2S(=O)(=O)c2ccc(C)cc2)c1 [Compound 239, 2-(3-methoxyphenyl)-N′-((1E)-{2-[(4-methylphenyl)sulfonyl]phenyl}methylene)-acetohydrazide]	5 to 50
O=C(Cc1cncc(Br)c1)N/N=C/c1ccccc1OS(=O)(=O)c1ccc(C(F)(F)F)cc1 [Compound 61, 2-((E)-{2-[2-(5-bromopyridin-3-yl)acetyl]hydrazono}methyl)phenyl 4-(trifluoromethyl)benzenesulfonate]	< 5
O=C(Cc1c[nH]c2ccccc12)N/N=C/c1ccccc1OS(=O)(=O)c1ccc(C(F)(F)F)cc1 [Compound 3, 2-((E)-{2-[2-(1H-indol-3-yl)-acetyl]hydrazono}methyl)phenyl 4-(trifluoromethyl)benzene-sulfonate]	< 5
COc1cccc(CC(=O)N/N=C/c2cccc(C)c2OS(=O)(=O)c2ccc(C)cc2)c1 [Compound 163, 2-((E)-{[(3-methoxyphenyl)acetyl]hydrazono}methyl)-6-methylphenyl 4-methylbenzenesulfonate]	< 5
O=S(=O)(N/N=C/c1ccccc1OS(=O)(=O)c1ccc(C(F)(F)F)cc1)c1cccc2ccccc12 [Compound 256, 2-{(E)-[2-(1-naphthylsulfonyl)hydrazono]methyl}phenyl4-(trifluoromethyl)benzenesulfonate]	5 to 50
COc1cccc(CC(=O)N/N=C/c2c(F)cccc2OS(=O)(=O)c2ccc(C(F)(F)F)cc2)c1 [Compound 207, 3-fluoro-2-((E)-{[(3-methoxyphenyl)acetyl]hydrazono}methyl)-phenyl 4-(trifluoromethyl)benzenesulfonate]	< 5
O=C(Cc1ccccc1)N/N=C/c1ccccc1OS(=O)(=O)c1ccc(Br)cc1 [Compound 128, 2-{(E)-[2-(2-phenylacetyl)hydrazono]methyl}phenyl 4-bromobenzenesulfonate]	< 5
